Test results: article PMC7663799, “Endocytosis and Trafficking of Heparan Sulfate Proteoglycans in Triple-Negative Breast Cancer Cells Unraveled with a Polycationic Peptide” (International Journal of Molecular Sciences, 2020)

Columns and labels:
[1] = system: NT4 internalization in MDA-MB-231 cells; experiment: Inhibition of NT4 internalization by pharmacological agents, confocal microscopy; assay type: cell-based, human; conditions: for reduction of NT4 internalization: ±13%
Experimental: (§1) MDA-MB-231 cells were plated at a density of 5 × 10^4 per well in 24-well plates with glass cover slides and maintained overnight at 37 °C, 5% CO2.
Cells were pretreated for 15 min with 1–10 μg/mL Chlorpromazine (Merck, Darmstadt, Germany), 25 μg/mL Nystatin (Merck), 80 μM Dynasore (Merck) and 50 µM Amiloride (Merck) at 37 °C and then incubated with 2 μM NT4-biotin and 0.5 μg/mL Streptavidin-Atto 488 in PBS-1% BSA at room temperature for 15 min. To study macropinocytosis in the presence of Amiloride, 5 mg/mL Rhodamine B isothiocyanate–Dextran in PBS-1% BSA (Merck) was incubated at room temperature for 15 min. Cells were then washed and grown in medium, with and without pharmacological agents, for 15 and 30 min at 37 °C to allow peptide internalization. After internalization, they were fixed with PBS-4% PFA and plasma membranes were stained with 2.5 μg/mL wheat germ agglutinin, Alexa Fluor 647 (Thermo Fisher Scientific) conjugate in PBS-1% BSA, incubated for 10 min at room temperature. Nuclei were stained with DAPI (0.5 μg/mL in PBS-1% BSA). Each step was followed by three washes in PBS.
Peptide binding was analyzed by confocal laser microscope (Leica TCS SP5) with 501 λ ex and 523 λ em for Atto 488, 633 λ ex and 660–680 λ em for Atto 647 and 364 λ ex and 458 λ em for DAPI. Images were single Z-planes for all channels used. All images were processed and quantified using the Leica Application Suite X program (LAS X) of the confocal laser microscope (Leica TCS SP5). The experiment was repeated at least three times and at least three different fields were acquired for each sample.

proteolytic enzymes = conditions: imparted by branched structure; cited from earlier work
Source text: NT4 is a tetrabranched peptide obtained by synthesizing four copies of the 13-amino-acid sequence on a branched core of lysines. […] The peptide has already been tested in animal models of cancer and has shown good specificity for tumor versus healthy cells. It also countered the invasive ...

RhoA-GTP = experiment: G-LISA activation assay, RhoA; assay type: cell-based, human; conditions: starved MDA-MB-231, n = 3
Experimental: (§2) Cells were seeded in six-well plates (5 × 10^5 cells per well) and maintained for 12 h in a CO2 incubator. To measure Rac-1, RhoA and CDC42 GTPases, they were treated with 10 µM NT4 in DMEM-0.1% BSA, serum-free, for 12 h at 37 °C and then incubated with 0.1 μg/mL hEGF (Cell Signaling) for 2 min for Rac-1 and CDC42 GTPases and for 5 min for RhoA GTPase. Cells were washed with cold PBS, lysed and processed for colorimetric G-LISA activation assays (Cytoskeleton, Denver, CO, USA), according to the manufacturer’s instructions. The activated forms of the G proteins were detected by incubation with specific primary antibody, followed by a secondary antibody conjugated with HRP and a detection reagent. The signal was read by measuring absorbance at 490 nm using a microplate reader. The experiment was repeated three times.

MDA-MB-231 cells [2] = experiment: 2D migration, in vitro wound-healing (scratch) assay; assay type: cell-based, human; conditions: 10 μM NT4 in complete medium, p = 0.0428, n = 2
Experimental: Cell migration was measured using an in vitro wound-healing assay. MDA-MB231 cells (5.25 × 10^4) were seeded on each side of a culture insert for live cell analysis (Ibidi, Munich, Germany). Inserts were placed in the wells of a 24-well plate and the cells were incubated at 37 °C and 5% CO2 to confluence. The inserts were removed with sterile tweezers to create a cell-free area of approximately 500 μm. The cells were treated with 10 μM NT4 peptide in complete medium and allowed to migrate in an appropriate incubator of a DMi8 (Leica Microsystems, Wetzlar, Germany) microscope. The same instrument was used to take pictures at time zero and every 5 min for 11 h.
The percentage of void area with respect to time 0 was determined using Tscratch. The time-lapse image stacks were also analyzed using ImageJ and the plug-in Chemotaxis and Migration Tool.

CDC42-GTP = experiment: G-LISA activation assay, CDC42; assay type: cell-based, human; conditions: starved MDA-MB-231
Experimental: as §2, with “The experiment was repeated three times.” left out

MDA-MB-231 cells [3] = experiment: NT4 binding to plasma membrane and internalization, confocal immunofluorescence; assay type: cell-based, human; conditions: confocal microscopy
Experimental: as §1
Cells were incubated with 2 μM NT4-biotin and 0.5 μg/mL Streptavidin-Atto 488 in PBS-1% BSA at room temperature for 15 min, then washed and grown in medium for 5, 15 and 30 min at 37 °C to allow peptide internalization. They were then fixed with PBS-4% paraformaldehyde (PFA) and saturated with PBS-5% BSA 0.3%-Triton X-100. HS was stained using 1 µg/mL anti-heparan sulfate (10E4 epitope) (Amsbio, Abingdon, UK) in PBS-1% BSA for 1 h, followed by incubation with 1 μg/mL anti-mouse IgG Rhodamine Red-X (Thermo Fisher Scientific, Waltham, MA, USA). Nuclei were stained with DAPI (0.5 μg/mL in PBS-1% BSA). Each step was followed by three washes in PBS. Peptide binding was analyzed by confocal laser microscope (Leica TCS SP5) with 380 λ ex and 450–470 λ em, 501 λ ex and 523 λ em and 633 λ ex and 660–680 λ em for DAPI, Atto 488 and Atto 647, respectively. The experiment was repeated three times and three different fields were acquired for each sample.

Rac-1-GTP = experiment: Rac1 pulldown assay (GST-PAK1-PBD beads, immunoblot); assay type: cell-based, human; conditions: MDA-MB-231, no EGF
Experimental: Rac1 activity was measured by pulldown assay using the active Rac1 detection kit (Cell Signaling), according to the manufacturer’s instructions. Cells were seeded in six-well plates (5 × 10^5 cells per well) and maintained for 24 h in a CO2 incubator. Cells were washed with cold PBS and lysed. Protein lysates were centrifuged and the supernatant was collected in new tubes containing beads pre-coupled with GST–PAK1-PBD and incubated under rotation at 4 °C for 60 min. The beads were washed and the proteins bound to them were separated by SDS-PAGE. The amounts of active Rac1 were determined by immunoblot analysis. Signals were detected using a LAS4010 imaging system (GE Healthcare, Chicago, IL, USA).

Rac1-GTP = experiment: G-LISA activation assay, Rac1; assay type: cell-based, human; conditions: starved MDA-MB-231
Experimental: as §2

heparan sulfate chains = conditions: surface plasmon resonance; cited from earlier work
MDA-MB231 cells = conditions: flow cytometry; cited from earlier work
Experimental: The peptide bound to the plasma membrane (Figure 1A), most was internalized in cells within 15–30 min (Figure 1B,C) and it was completely endocytosed within 1 h (Figure 1D). The antibody anti-HS clone 10E4 [20], the epitope of which includes an N-sulfated glucosamine r ...

O=C(N/N=C/c1ccc(O)c(O)c1)c1cc2ccccc2cc1O [dynasore]
effect on NT4 internalization ([1]; 80 μM dynasore, n = 6, p = 0.0043): no longer internalized NT4

(pyELYENKPRRPYIL)4K2K-beta-Ala [NT4]
stability against proteolytic enzymes (proteolytic enzymes): stability against proteolytic enzymes
reduction of RhoA (RhoA-GTP) (RhoA-GTP; 10 µM NT4 12 h alone, without EGF): 20%
reduction of RhoA (RhoA-GTP) (RhoA-GTP; EGF with NT4: 10 µM NT4 12 h, then 0.1 μg/mL hEGF 5 min): 21%
effect on MDA-MB-231 migration (gap closure in 8 h) (MDA-MB-231 cells [2]): slowed MDA-MB-231 migration
effect on CDC42 activation without EGF (CDC42-GTP; 10 µM NT4 12 h, no EGF): no effect on CDC42 activation
effect on EGF-induced CDC42 activation (CDC42-GTP; 10 µM NT4 12 h, then 0.1 μg/mL hEGF 2 min, n = 2): mitigates activation of CDC42 induced by the growth factor
time within which most of the peptide was internalized in cells (MDA-MB-231 cells [3]; 2 μM NT4-biotin + 0.5 μg/mL Streptavidin-Atto 488, 15 min RT in PBS-1% BSA, then medium at 37 °C): 15 to 30 min
time within which the peptide was completely endocytosed (MDA-MB-231 cells [3]; 2 μM NT4-biotin + Streptavidin-Atto 488, 37 °C): ≤ 1 h
effect on basal levels of Rac-1-GTP (Rac-1-GTP): not affected
effect on EGF-induced Rac1 activation (Rac1-GTP; 10 µM NT4 12 h, then 0.1 μg/mL hEGF 2 min): not significantly changed
binding to heparan sulfate chains (heparan sulfate chains): bind heparan sulfate chains
binding to MDA-MB231 cells (MDA-MB231 cells): bind to MDA-MB231 cells

C[C@@H]1[C@H](O)[C@@H](C)/C=C/C=C/CC/C=C/C=C/C=C/C=C/C(O[C@H]2O[C@H](C)[C@@H](O)[C@H](N)[C@@H]2O)CC2O[C@](O)(CC(O)C(O)CCC(O)CC(O)CC(O)CC(=O)O[C@H]1C)CC(O)C2C(=O)O (some centres unmarked) [nystatin]
inhibition of NT4 endocytosis ([1]; 25 μg/mL nystatin, 15 min, 2 μM NT4-biotin, n = 9, p = 0.0345): 60%

N=C(N)NC(=O)c1nc(Cl)c(N)nc1N [Amiloride]
impairment of NT4 internalization ([1]; 50 µM amiloride pre-treatment, p = 0.0461): more than 50%

CN(C)CCCN1c2ccccc2Sc2ccc(Cl)cc21 [chlorpromazine]
reduction of NT4 internalization ([1]; chlorpromazine 1 μg/mL, n = 3, p = 0.0279): 27%
reduction of NT4 internalization ([1]; chlorpromazine 10 μg/mL, n = 4, p = 0.0327): 57%

EGF: growth factor (hEGF, Cell Signaling) used to stimulate Rho GTPases
reduction of RhoA (RhoA-GTP) (RhoA-GTP; 0.1 μg/mL hEGF 5 min alone): 26%
effect on CDC42-GTP (CDC42-GTP; 0.1 μg/mL hEGF 2 min): increased
effect on Rac1-GTP (Rac1-GTP; 0.1 μg/mL hEGF 2 min): transiently activated
